Experimental data reported in patent US20250163104A1, “MACROCYCLIC IMMUNOMODULATORS” (priority 2021, published 2025).
Where a SMILES comes first, the peptide text is derived from it. Bridges are numbered along the chain shown (N, C = ends). [ ]: non-standard residue; d: D form. The star is where a group is joined. ξ: configuration not given here. Phe(3-CF3) = N[C@@H](Cc1cccc(C(F)(F)F)c1)C(=O)O; Ala(morpholin-4-yl) = N[C@@H](CN1CCOCC1)C(=O)O; Phe(4-COOH) = N[C@@H](Cc1ccc(C(=O)O)cc1)C(=O)O; Tyr(Ph) = N[C@@H](Cc1ccc(Oc2ccccc2)cc1)C(=O)O; Bip = N[C@@H](Cc1ccc(-c2ccccc2)cc1)C(=O)O; Phe(3-Me) = Cc1cccc(C[C@H](N)C(=O)O)c1; 4Pal = N[C@@H](Cc1ccncc1)C(=O)O; Cha = N[C@@H](CC1CCCCC1)C(=O)O; Cit = NC(=O)NCCC[C@H](N)C(=O)O; Thr(3ξ) = CC(O)[C@H](N)C(=O)O; Carboxymethyl = O=C(O)C*; Orn = NCCC[C@H](N)C(=O)O; Dab = NCC[C@H](N)C(=O)O; Dap = NC[C@H](N)C(=O)O

Target: T1, human PD-1 / PD-L1-Ig binding on Jurkat cell line over-expressing human PD-1 (Jurkat-PD-1) (Homo sapiens, UniProt Q15116)
T1 construct: expressed in transfected cells; host or cells: Jurkat
T1 sequence (Q15116 25-288): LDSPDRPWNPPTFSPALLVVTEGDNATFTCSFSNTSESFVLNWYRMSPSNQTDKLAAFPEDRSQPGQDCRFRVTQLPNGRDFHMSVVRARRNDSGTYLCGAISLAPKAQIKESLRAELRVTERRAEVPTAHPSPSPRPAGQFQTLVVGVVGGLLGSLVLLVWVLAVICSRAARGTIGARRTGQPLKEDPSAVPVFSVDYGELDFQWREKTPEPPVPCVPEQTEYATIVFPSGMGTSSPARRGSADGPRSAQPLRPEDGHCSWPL
Assay: Jurkat-PD-1 Cell Binding High-Content Screening Assay (CBA)
Format: cell-based
Details: Jurkat HPD1_PDL1 IC50, Jurkat-PD-1 cells, PE-labeled PD-L1-Ig 20 nM final
Outline: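 Compounds were preincubated with Jurkat-hPD-1 cells in DMEM plus 10% fetal calf serum for 2 h at 37° C. Phycoerythrin-labeled PD-L1-Ig (20 nM final) was then added for 1 hour. Cells were fixed in 4% paraformaldehyde with Hoechst 33342, and bound fluorescence was quantified by high-content imaging.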

| IC50 [nM] | SMILES |
| --- | --- |
| 310 | CC(C)C[C@@H]1NC(=O)[C@H](Cc2c[nH]c3ccccc23)NC(=O)[C@H](CC(=O)O)NC(=O)[C@H](Cc2ccc(O)cc2)NC(=O)[C@H](Cc2ccccc2)NC(=O)CSC[C@@H](C(=O)NCC(N)=O)NC(=O)[C@H]([C@@H](C)O)NC(=O)[C@H](C(C)C)NC(=O)[C@H](CC(C)C)NC(=O)[C@H](CC(N)=O)NC(=O)[C@@H](C)NC(=O)[C@H](CCCN)NC(=O)[C@H](C(C)C)NC(=O)[C@H](Cc2ccc(-c3ccccc3)cc2)NC1=O [Compound 1107] ({CH2CO}-FYDWL[Bip]V[Orn][dA]NLVTCG-NH2; thioether N-14) |

Same assay, conditions: Jurkat-PD-1 cells, PE-labeled PD-L1-Ig 20 nM final; read-out: Jurkat HPD1_PDL1 IC50

| IC50 [nM] | SMILES |
| --- | --- |
| 10.5 | CC(C)C[C@H]1NC(=O)[C@H](CCCN)NC(=O)[C@H](C(C)C)NC(=O)[C@H](Cc2ccc(-c3ccccc3)cc2)NC(=O)[C@H](C(C)C)NC(=O)[C@H](Cc2c[nH]c3ccccc23)NC(=O)[C@H](CC(=O)O)NC(=O)[C@H](Cc2ccc(OCC(=O)O)cc2)NC(=O)[C@H](CN)NC(=O)CSC[C@@H](C(=O)N[C@@H](C)C(N)=O)NC(=O)[C@H]([C@@H](C)O)NC(=O)[C@H](C(C)C)NC(=O)[C@H](CC2CCCCC2)NC(=O)[C@H](CCC(N)=O)NC1=O [Compound 1520] ({CH2CO}-[Dap]Y(Carboxymethyl)DWV[Bip]V[Orn][dL]Q[Cha]VTCA-NH2; thioether N-14) |
| 29.8 | CC(C)[C@@H]1NC(=O)[C@H](Cc2c[nH]c3ccccc23)NC(=O)[C@H](CC(=O)O)NC(=O)[C@H](Cc2ccncc2)NC(=O)[C@H](Cc2ccc(OCC(=O)O)cc2)NC(=O)CSC[C@@H](C(=O)N[C@@H](C)C(N)=O)NC(=O)[C@H]([C@@H](C)O)NC(=O)[C@H](C(C)C)NC(=O)[C@H](CC2CCCCC2)NC(=O)[C@H](CCN)NC(=O)[C@@H](Cc2ccc(O)cc2)NC(=O)[C@H](CCCN)NC(=O)[C@H](CCC(=O)O)NC(=O)[C@H](Cc2ccc(-c3ccccc3)cc2)NC1=O [Compound 1447] ({CH2CO}-Y(Carboxymethyl)[4Pal]DWV[Bip]E[Orn][dY][Dab][Cha]VTCA-NH2; thioether N-14) |
| 9.2 | CC(C)C[C@H]1NC(=O)[C@H](CCCN)NC(=O)[C@H](C(C)C)NC(=O)[C@H](Cc2ccc(-c3ccccc3)cc2)NC(=O)[C@H](C(C)C)NC(=O)[C@H](Cc2c[nH]c3ccccc23)NC(=O)[C@H](CC(=O)O)NC(=O)[C@H](Cc2ccc(OCC(=O)O)cc2)NC(=O)[C@H](CN)NC(=O)CSC[C@@H](C(=O)N[C@@H](C)C(N)=O)NC(=O)[C@H]([C@@H](C)O)NC(=O)[C@H](C(C)C)NC(=O)[C@H](CC2CCCCC2)NC(=O)[C@H]([C@@H](C)O)NC1=O [Compound 1524] ({CH2CO}-[Dap]Y(Carboxymethyl)DWV[Bip]V[Orn][dL]T[Cha]VTCA-NH2; thioether N-14) |
| 94 | CC(C)C[C@H]1NC(=O)[C@H](CCCN)NC(=O)[C@H](Cc2ccc(C(=O)O)cc2)NC(=O)[C@H](Cc2ccc(-c3ccccc3)cc2)NC(=O)[C@H](Cc2ccc(Oc3ccccc3)cc2)NC(=O)[C@H](Cc2cccc(C(F)(F)F)c2)NC(=O)[C@H](CC(=O)O)NC(=O)[C@H](Cc2ccc(C(=O)O)cc2)NC(=O)[C@H](CN2CCOCC2)NC(=O)CSC[C@@H](C(=O)N[C@@H](CCN)C(N)=O)NC(=O)[C@H](CCC(=O)O)NC(=O)[C@H](C(C)C)NC(=O)[C@H](CC2CCCCC2)NC(=O)[C@H](CCN)NC1=O [Example 2730] ({CH2CO}-[Ala(morpholin-4-yl)][Phe(4-COOH)]D[Phe(3-CF3)][Tyr(Ph)][Bip][Phe(4-COOH)][Orn][dL][Dab][Cha]VEC[Dab]-NH2; thioether N-14) |
| 348 | Cc1cccc(C[C@@H]2NC(=O)[C@H](CC(N)=O)NC(=O)[C@H](Cc3ccc(C(=O)O)cc3)NC(=O)[C@H](CN3CCOCC3)NC(=O)CSC[C@@H](C(=O)N[C@@H](CCN)C(N)=O)NC(=O)[C@H](CCCN)NC(=O)[C@H](C(C)C)NC(=O)[C@H](CC3CCCCC3)NC(=O)[C@H](CCN)NC(=O)[C@@H](CC(C)C)NC(=O)[C@H](CCCN)NC(=O)[C@H](CCCN)NC(=O)[C@H](Cc3ccc(-c4ccccc4)cc3)NC(=O)[C@H](Cc3ccc(C(=O)O)cc3)NC2=O)c1 [Example 2727] ({CH2CO}-[Ala(morpholin-4-yl)][Phe(4-COOH)]N[Phe(3-Me)][Phe(4-COOH)][Bip][Orn][Orn][dL][Dab][Cha]V[Orn]C[Dab]-NH2; thioether N-14) |

The remaining lines, values behind:

| SMILES | IC50 [nM] |
| --- | --- |
| Cc1cccc(C[C@@H]2NC(=O)[C@H](CC(=O)O)NC(=O)[C@H](Cc3ccc(OCC(=O)O)cc3)NC(=O)[C@H](CN)NC(=O)CSC[C@@H](C(=O)N[C@@H](C)C(N)=O)NC(=O)[C@H]([C@@H](C)O)NC(=O)[C@H](C(C)C)NC(=O)[C@H](CC3CCCCC3)NC(=O)[C@H](CCN)NC(=O)[C@@H](CC(C)C)NC(=O)[C@H](CCCN)NC(=O)[C@H](CCCNC(N)=O)NC(=O)[C@H](Cc3ccc(-c4ccccc4)cc3)NC(=O)[C@H](C(C)C)NC2=O)c1 [Compound 1208] | 2.7 |
| Cc1cccc(C[C@@H]2NC(=O)[C@H](CC(=O)O)NC(=O)[C@H](Cc3ccc(OCC(=O)O)cc3)NC(=O)[C@H]([C@@H](C)O)NC(=O)CSC[C@@H](C(N)=O)NC(=O)[C@H]([C@@H](C)O)NC(=O)[C@H](C(C)C)NC(=O)[C@H](CC3CCCCC3)NC(=O)[C@H](CCN)NC(=O)[C@@H](CC(C)C)NC(=O)[C@H](CCCN)NC(=O)[C@H](Cc3ccc(OCC(=O)O)cc3)NC(=O)[C@H](Cc3ccc(-c4ccccc4)cc3)NC(=O)[C@H](Cc3ccc(OCC(=O)O)cc3)NC2=O)c1 [Compound 1800] ({CH2CO}-TY(Carboxymethyl)D[Phe(3-Me)]Y(Carboxymethyl)[Bip]Y(Carboxymethyl)[Orn][dL][Dab][Cha]VTC-NH2; thioether N-14) | 17.3 |
| CC(C)C[C@H]1NC(=O)[C@H](CCCN)NC(=O)[C@H](CCCNC(N)=O)NC(=O)[C@H](Cc2ccc(-c3ccccc3)cc2)NC(=O)[C@H](C(C)C)NC(=O)[C@H](Cc2c[nH]c3ccccc23)NC(=O)[C@H](CC(=O)O)NC(=O)[C@H](Cc2ccc(OCC(=O)O)cc2)NC(=O)[C@H](CN)NC(=O)CSC[C@@H](C(=O)N[C@@H](C)C(N)=O)NC(=O)[C@H]([C@@H](C)O)NC(=O)[C@H](C(C)C)NC(=O)[C@H](Cc2ccc(O)cc2)NC(=O)[C@H](CCN)NC1=O [Compound 1346] ({CH2CO}-[Dap]Y(Carboxymethyl)DWV[Bip][Cit][Orn][dL][Dab]YVTCA-NH2; thioether N-14) | 95.8 |
| CC(C)C[C@H]1NC(=O)[C@H](CCCN)NC(=O)[C@H](CCCNC(N)=O)NC(=O)[C@H](Cc2ccc(-c3ccccc3)cc2)NC(=O)[C@H](C(C)C)NC(=O)[C@H](Cc2c[nH]c3ccccc23)NC(=O)[C@H](CC(=O)O)NC(=O)[C@H](Cc2ccc(C(=O)c3ccccc3)cc2)NC(=O)[C@H](CN)NC(=O)CSC[C@@H](C(=O)N[C@@H](C)C(N)=O)NC(=O)[C@H]([C@@H](C)O)NC(=O)[C@H](C(C)C)NC(=O)[C@H](CC2CCCCC2)NC(=O)[C@H](CCN)NC1=O [Compound 2132] | 65.2 |
| CC(C)C[C@H]1NC(=O)[C@H](CCCN)NC(=O)[C@H](CCC(=O)O)NC(=O)[C@H](Cc2ccc(-c3ccccc3)cc2)NC(=O)[C@H](C(C)C)NC(=O)[C@H](Cc2c[nH]c3ccccc23)NC(=O)[C@H](CC(=O)O)NC(=O)[C@H](Cc2ccncc2)NC(=O)[C@H](CC(N)=O)NC(=O)CSC[C@@H](C(=O)N[C@@H](C)C(N)=O)NC(=O)[C@H]([C@@H](C)O)NC(=O)[C@H](C(C)C)NC(=O)[C@H](CC2CCCCC2)NC(=O)[C@H](CCN)NC1=O [Compound 2195] ({CH2CO}-N[4Pal]DWV[Bip]E[Orn][dL][Dab][Cha]VTCA-NH2; thioether N-14) | 22.8 |
| Cc1cccc(C[C@@H]2NC(=O)[C@H](CC(=O)O)NC(=O)[C@H](Cc3ccc(OCC(=O)O)cc3)NC(=O)[C@H](Cc3ccc(OCC(=O)O)cc3)NC(=O)CSC[C@@H](C(N)=O)NC(=O)[C@H](CO)NC(=O)[C@H](C(C)C)NC(=O)[C@H](CC(C)C)NC(=O)[C@H](CCN)NC(=O)[C@@H](CC(C)C)NC(=O)[C@H](CCCN)NC(=O)[C@H](C(C)C)NC(=O)[C@H](Cc3ccc(-c4ccccc4)cc3)NC(=O)[C@H](CC(C)C)NC2=O)c1 [Compound 1649] ({CH2CO}-Y(Carboxymethyl)Y(Carboxymethyl)D[Phe(3-Me)]L[Bip]V[Orn][dL][Dab]LVSC-NH2; thioether N-14) | 34.5 |
| CC(=O)NCCCC[C@@H]1NC(=O)[C@H](Cc2ccc(-c3ccccc3)cc2)NC(=O)[C@H](CC(C)C)NC(=O)[C@H](Cc2c[nH]c3ccccc23)NC(=O)[C@H](CC(=O)O)NC(=O)[C@H](Cc2ccc(OCC(=O)O)cc2)NC(=O)[C@H](C(C)O)NC(=O)CSC[C@@H](C(N)=O)NC(=O)[C@H](C(C)O)NC(=O)[C@H](C(C)C)NC(=O)[C@H](CC2CCCCC2)NC(=O)[C@H](CCC(=O)O)NC(=O)[C@@H](CC(C)C)NC(=O)[C@H](CCC(=O)O)NC1=O (stereo partly drawn) [Compound 2607] ({CH2CO}-[Thr(3ξ)]Y(Carboxymethyl)DWL[Bip]K(Ac)E[dL]E[Cha]V[Thr(3ξ)]C-NH2; thioether N-14) | 389 |
| CC(C)C[C@H]1NC(=O)[C@H](CCCN)NC(=O)[C@H](CCC(=O)O)NC(=O)[C@H](Cc2ccc(-c3ccccc3)cc2)NC(=O)[C@H](C(C)C)NC(=O)[C@H](Cc2c[nH]c3ccccc23)NC(=O)[C@H](CC(=O)O)NC(=O)[C@H](Cc2ccc(OCC(=O)O)cc2)NC(=O)[C@H](CN)NC(=O)CSC[C@@H](C(=O)N[C@@H](C)C(N)=O)NC(=O)[C@H]([C@@H](C)O)NC(=O)[C@H](C(C)C)NC(=O)[C@H](CC2CCCCC2)NC(=O)[C@H](CCN)NC1=O [Compound 1425] | 16.8 |
| CC(C)C[C@H]1NC(=O)[C@H](CCCN)NC(=O)[C@H](CCC(=O)O)NC(=O)[C@H](Cc2ccc(-c3ccccc3)cc2)NC(=O)[C@H](C(C)C)NC(=O)[C@H](Cc2c[nH]c3ccccc23)NC(=O)[C@H](CC(=O)O)NC(=O)[C@H](Cc2cccs2)NC(=O)[C@H](Cc2ccc(OCC(=O)O)cc2)NC(=O)CSC[C@@H](C(=O)N[C@@H](C)C(N)=O)NC(=O)[C@H]([C@@H](C)O)NC(=O)[C@H](C(C)C)NC(=O)[C@H](CC2CCCCC2)NC(=O)[C@H](CCN)NC1=O [Compound 2193] | 23.4 |
